Data set [1] concerns the target T1, Oxysterols receptor LXR-beta (Mus musculus, UniProt Q60644).
T1 sequence (Q60644 whole entry): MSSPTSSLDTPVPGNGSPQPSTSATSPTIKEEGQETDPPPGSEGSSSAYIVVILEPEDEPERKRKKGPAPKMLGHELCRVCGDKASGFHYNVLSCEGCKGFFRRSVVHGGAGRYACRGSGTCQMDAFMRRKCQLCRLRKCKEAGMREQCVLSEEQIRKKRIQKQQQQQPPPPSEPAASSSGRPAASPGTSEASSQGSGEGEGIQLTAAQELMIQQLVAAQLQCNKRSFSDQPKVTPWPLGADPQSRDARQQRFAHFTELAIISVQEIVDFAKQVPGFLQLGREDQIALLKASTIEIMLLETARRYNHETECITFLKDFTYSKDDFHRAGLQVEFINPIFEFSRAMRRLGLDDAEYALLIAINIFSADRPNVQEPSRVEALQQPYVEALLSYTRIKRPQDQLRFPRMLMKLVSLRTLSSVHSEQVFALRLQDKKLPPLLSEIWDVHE
Nature of the data set: Agonist activity at mouse LXRbeta expressed in HEK293 cells co-expressing CMX-beta-galactosidase incubated for 16 hrs by luciferase reporter gene assay. The data set is classed as cell-based. In general terms: Reporter assays use an easily measured gene product as a stand-in for the process of interest.

Data set [2] addresses Oxysterols receptor LXR-beta (Homo sapiens, UniProt P55055). Nature of the data set: Agonist activity at LXRbeta ligand-binding domain (unknown origin) at 3 uM incubated for 1.5 hrs using fluorescein-labeled coactivator peptide by TR-FRET competitive binding assay relative to T0901317.
The target of data set [3] is T2, Peroxisome proliferator-activated receptor gamma (Homo sapiens) (UniProt P37231).
T2 sequence (whole entry): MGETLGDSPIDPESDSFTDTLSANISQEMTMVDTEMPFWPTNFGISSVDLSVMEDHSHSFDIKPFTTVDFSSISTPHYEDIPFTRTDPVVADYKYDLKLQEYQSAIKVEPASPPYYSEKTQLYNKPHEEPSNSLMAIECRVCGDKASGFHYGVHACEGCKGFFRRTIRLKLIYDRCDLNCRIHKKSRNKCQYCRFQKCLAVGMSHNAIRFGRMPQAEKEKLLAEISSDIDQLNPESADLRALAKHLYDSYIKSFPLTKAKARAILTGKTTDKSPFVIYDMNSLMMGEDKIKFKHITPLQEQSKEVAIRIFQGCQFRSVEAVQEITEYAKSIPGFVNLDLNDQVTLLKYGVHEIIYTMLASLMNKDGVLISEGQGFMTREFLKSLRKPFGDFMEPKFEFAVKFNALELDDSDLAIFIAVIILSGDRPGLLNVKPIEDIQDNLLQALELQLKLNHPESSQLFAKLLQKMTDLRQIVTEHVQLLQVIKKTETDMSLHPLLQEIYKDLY
Nature of the data set: Agonist activity at GAL4-tagged PPARgamma (unknown origin) expressed in HEK293 cells co-expressing CMX-beta-galactosidase at 0.3 to 30 uM incubated for 16 hrs by luciferase reporter gene assay. The data set is classed as cell-based.

In data set [4] the target is T3, Oxysterols receptor LXR-beta (Homo sapiens) (UniProt P55055).
T3 sequence (whole entry): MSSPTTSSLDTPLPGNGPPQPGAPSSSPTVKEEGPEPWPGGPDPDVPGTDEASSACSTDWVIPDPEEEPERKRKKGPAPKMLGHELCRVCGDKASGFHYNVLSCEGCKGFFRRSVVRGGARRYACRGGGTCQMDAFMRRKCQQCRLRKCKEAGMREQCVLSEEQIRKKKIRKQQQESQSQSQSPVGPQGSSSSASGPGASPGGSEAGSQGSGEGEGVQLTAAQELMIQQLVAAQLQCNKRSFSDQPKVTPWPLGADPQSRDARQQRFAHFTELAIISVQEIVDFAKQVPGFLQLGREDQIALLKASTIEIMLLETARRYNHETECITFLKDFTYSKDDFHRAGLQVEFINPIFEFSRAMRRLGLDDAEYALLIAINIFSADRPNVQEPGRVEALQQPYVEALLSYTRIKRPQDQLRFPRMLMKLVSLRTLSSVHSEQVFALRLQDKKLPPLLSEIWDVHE
Nature of the data set: Agonist activity at human LXRbeta expressed in HEK293 cells co-expressing CMX-beta-galactosidase incubated for 16 hrs by luciferase reporter gene assay relative to T0901317. The data set is classed as cell-based.

The target of data set [5] is T4, Oxysterols receptor LXR-alpha (Homo sapiens) (UniProt Q13133).
T4 sequence (whole entry): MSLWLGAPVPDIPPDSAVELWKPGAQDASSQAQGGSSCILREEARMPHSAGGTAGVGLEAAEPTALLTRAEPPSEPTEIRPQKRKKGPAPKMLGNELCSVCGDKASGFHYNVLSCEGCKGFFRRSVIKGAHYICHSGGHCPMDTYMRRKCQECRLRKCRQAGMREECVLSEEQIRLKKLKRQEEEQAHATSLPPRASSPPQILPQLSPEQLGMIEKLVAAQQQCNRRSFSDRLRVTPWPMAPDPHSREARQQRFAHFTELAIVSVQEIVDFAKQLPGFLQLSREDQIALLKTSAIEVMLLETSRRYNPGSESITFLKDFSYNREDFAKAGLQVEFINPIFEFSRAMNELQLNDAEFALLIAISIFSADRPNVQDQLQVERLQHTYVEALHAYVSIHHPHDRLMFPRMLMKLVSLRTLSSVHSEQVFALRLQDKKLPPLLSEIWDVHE
Nature of the data set: Agonist activity at human LXRalpha expressed in HEK293 cells co-expressing CMX-beta-galactosidase at 30 uM incubated for 16 hrs by luciferase reporter gene assay. The data set is classed as cell-based.

Data set [6] can be described thus: Aqueous solubility of the compound in EtOH: 1/15 M phosphate buffer at pH 7.4 1:1 by HPLC method. The data set is classed as physicochemical.
Data set [7] has as its target T5, Retinoic acid receptor gamma (Homo sapiens) (UniProt P13631).
T5 sequence (whole entry): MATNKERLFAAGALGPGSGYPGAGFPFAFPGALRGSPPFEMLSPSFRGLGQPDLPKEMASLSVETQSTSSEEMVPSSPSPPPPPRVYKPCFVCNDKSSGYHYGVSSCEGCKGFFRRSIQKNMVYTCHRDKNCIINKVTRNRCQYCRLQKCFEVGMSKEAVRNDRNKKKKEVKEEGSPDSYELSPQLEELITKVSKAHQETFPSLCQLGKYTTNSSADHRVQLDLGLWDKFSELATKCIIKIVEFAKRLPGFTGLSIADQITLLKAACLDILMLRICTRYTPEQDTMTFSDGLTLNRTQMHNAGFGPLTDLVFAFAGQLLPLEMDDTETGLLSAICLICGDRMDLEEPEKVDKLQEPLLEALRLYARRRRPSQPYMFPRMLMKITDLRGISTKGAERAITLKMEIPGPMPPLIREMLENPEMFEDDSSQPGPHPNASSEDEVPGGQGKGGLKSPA
Put plainly: Agonist activity at GAL4-tagged RARgamma (unknown origin) expressed in HEK293 cells co-expressing CMX-beta-galactosidase at 0.3 to 30 uM incubated for 16 hrs by luciferase reporter gene assay. The data set is classed as cell-based.

Data set [8] has as its target T4, Oxysterols receptor LXR-alpha (Homo sapiens). Nature of the data set: Agonist activity at LXRalpha ligand-binding domain (unknown origin) at 0.3 uM incubated for 1.5 hrs using fluorescein-labeled coactivator peptide by TR-FRET competitive binding assay relative to T0901317. (In general: Time-resolved FRET reads energy transfer from a long-lived donor to a nearby acceptor.)

The term pEC50 denotes −log10 of the EC50, conventionally taken in molar units. A low value points to a large EC50. What is called solubility is the dissolved amount per volume that the medium holds.

The structures appear in SMILES notation. pEC50: −log10 of the molar value. ≈ marks a conversion by molar mass, not a printed value. Calls of active or inactive are those of the source. The calls are words filed in the database; no cut-off is given here.

In turn, `O=C1c2c(Cl)c(Cl)c(Cl)c(Cl)c2C(=O)N1c1ccccc1/C=C/c1cccs1` had a pEC50 in data set [1] of 6.10. The Efficacy came to 14% in data set [2], 149% in data set [4] and 6% in data set [8]. Moreover, the outcome in data set [3], in data set [5] and in data set [7] was inactive. Moreover, the solubility in data set [6] is 0.015 µg/mL (≈ 0.032 µM).
